From article PMC6917776, “Discovery of a chemical probe for PRDM9” (Nature Communications, 2019)
Where two headings read alike, the source gives them in different places.

Assay: CelltiterGlo viability cell assay
Assay type: cell-based
Conditions: human; for viability at 3 day, 9.5 µM / viability at 3 day, 30 µM / viability at 6 day, 0.01 µM / viability at 6 day, 0.03 µM / viability at 6 day, 0.1 µM: SKMM2 cells (multiple myeloma line); for viability at 3 day, 0.01 µM / viability at 3 day, 0.03 µM: SKMM2 cells
Outline: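 Seed cells (e.g. MDA-MB-436 at 10000/well), add compound across 0.01 μM–30 μM, incubate 3 or 6 days, then read proliferation with CelltiterGlo. Normalize to DMSO.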

[1] = RPMI-8226 multiple myeloma cells, 8226, 3 day, read-out: viability Replicate 1
[2] = RPMI-8226 multiple myeloma cells, 8226, 3 day, read-out: viability Replicate 2
[3] = RPMI-8226 multiple myeloma cells, 8226, 3 day, read-out: viability Replicate 3
[4] = RPMI-8226 multiple myeloma cells, 8226, 3 day, read-out: viability Average
[5] = RPMI-8226 multiple myeloma cells, 8226, 6 day, read-out: viability Average
[6] = RPMI-8226 multiple myeloma cells, 8226, 6 day, read-out: viability Replicate 1
[7] = RPMI-8226 multiple myeloma cells, 8226, 6 day, read-out: viability Replicate 2
[8] = RPMI-8226 multiple myeloma cells, 8226, 6 day, read-out: viability Replicate 3
[9] = SKMM2, 3 day, read-out: viability Average
[10] = SKMM2, 3 day, read-out: viability Replicate 1
[11] = SKMM2, 3 day, read-out: viability Replicate 2
[12] = SKMM2, 3 day, read-out: viability Replicate 3
[13] = SKMM2, 6 day, read-out: viability Average
[14] = SKMM2, 6 day, read-out: viability Replicate 1
[15] = SKMM2, 6 day, read-out: viability Replicate 2
[16] = SKMM2, 6 day, read-out: viability Replicate 3
[17] = SKMM2 multiple myeloma cells, SKMM2, 3 day, read-out: viability Average
[18] = SKMM2 multiple myeloma cells, SKMM2, 3 day, read-out: viability Replicate 1
[19] = SKMM2 multiple myeloma cells, SKMM2, 3 day, read-out: viability Replicate 2
[20] = SKMM2 multiple myeloma cells, SKMM2, 3 day, read-out: viability Replicate 3
[21] = SKMM2 multiple myeloma cells, SKMM2, 6 day, read-out: viability Average
[22] = SKMM2 multiple myeloma cells, SKMM2, 6 day, read-out: viability Replicate 1
[23] = SKMM2 multiple myeloma cells, SKMM2, 6 day, read-out: viability Replicate 2
[24] = SKMM2 multiple myeloma cells, SKMM2, 6 day, read-out: viability Replicate 3

COc1cc(OC)cc(-c2noc(N3CCN(C)C4(CCN(c5ccnc(C)c5)CC4)C3)n2)c1 [MRK-740]
viability at 3 day, 0.3 µM [1]: 101% | viability at 3 day, 0.3 µM [2]: 101% | viability at 3 day, 0.3 µM [3]: 104% | viability at 3 day, 1 µM [4]: 104% | viability at 3 day, 1 µM [1]: 104% | viability at 3 day, 1 µM [2]: 102% | viability at 3 day, 1 µM [3]: 105% | viability at 3 day, 3 µM [4]: 106% | viability at 3 day, 3 µM [1]: 106% | viability at 3 day, 3 µM [2]: 105% | viability at 3 day, 3 µM [3]: 107% | viability at 6 day, 0.3 µM [5]: 98.9% | viability at 6 day, 0.3 µM [6]: 97.6% | viability at 6 day, 0.3 µM [7]: 98.6% | viability at 6 day, 0.3 µM [8]: 101% | viability at 6 day, 1 µM [5]: 97.3% | viability at 6 day, 1 µM [6]: 95% | viability at 6 day, 1 µM [7]: 99.7% | viability at 6 day, 1 µM [8]: 97.2% | viability at 6 day, 3 µM [5]: 92.6% | viability at 6 day, 3 µM [6]: 89.2% | viability at 6 day, 3 µM [7]: 96.8% | viability at 6 day, 3 µM [8]: 91.7% | viability at 6 day, 9.5 µM [5]: 82.7% | viability at 6 day, 9.5 µM [6]: 77% | viability at 6 day, 9.5 µM [7]: 85.6% | viability at 6 day, 9.5 µM [8]: 85.5% | viability at 6 day, 30 µM [5]: 70.7% | viability at 6 day, 30 µM [6]: 82% | viability at 6 day, 30 µM [7]: 56.4% | viability at 6 day, 30 µM [8]: 73.5% | viability at 3 day, 9.5 µM [9]: 93.2% | viability at 3 day, 9.5 µM [10]: 95.7% | viability at 3 day, 9.5 µM [11]: 89.2% | viability at 3 day, 9.5 µM [12]: 94.7% | viability at 3 day, 30 µM [9]: 67% | viability at 3 day, 30 µM [10]: 70.4% | viability at 3 day, 30 µM [11]: 59% | viability at 3 day, 30 µM [12]: 71.7% | viability at 6 day, 0.01 µM [13]: 99.7% | viability at 6 day, 0.01 µM [14]: 96.8% | viability at 6 day, 0.01 µM [15]: 103% | viability at 6 day, 0.01 µM [16]: 99.2% | viability at 6 day, 0.03 µM [13]: 98.1% | viability at 6 day, 0.03 µM [14]: 90.3% | viability at 6 day, 0.03 µM [15]: 105% | viability at 6 day, 0.03 µM [16]: 98.8% | viability at 6 day, 0.1 µM [13]: 96.7% | viability at 6 day, 0.1 µM [14]: 86.5% | viability at 6 day, 0.1 µM [15]: 107% | viability at 6 day, 0.1 µM [16]: 96.8% | viability at 3 day, 0.01 µM [9]: 101% | viability at 3 day, 0.01 µM [10]: 101% | viability at 3 day, 0.01 µM [11]: 99.6% | viability at 3 day, 0.01 µM [12]: 102% | viability at 3 day, 0.03 µM [9]: 101% | viability at 3 day, 0.03 µM [10]: 99.8% | viability at 3 day, 0.03 µM [11]: 99.2% | viability at 3 day, 0.03 µM [12]: 103% | viability at 3 day, 0.1 µM [17]: 103% | viability at 3 day, 0.1 µM [18]: 102% | viability at 3 day, 0.1 µM [19]: 100% | viability at 3 day, 0.1 µM [20]: 105% | viability at 3 day, 0.3 µM [17]: 101% | viability at 3 day, 0.3 µM [18]: 101% | viability at 3 day, 0.3 µM [19]: 98.7% | viability at 3 day, 0.3 µM [20]: 103% | viability at 3 day, 1 µM [17]: 101% | viability at 3 day, 1 µM [18]: 99.9% | viability at 3 day, 1 µM [19]: 99.6% | viability at 3 day, 1 µM [20]: 104% | viability at 3 day, 3 µM [17]: 99.8% | viability at 3 day, 3 µM [18]: 97.6% | viability at 3 day, 3 µM [19]: 98.3% | viability at 3 day, 3 µM [20]: 104% | viability at 6 day, 0.3 µM [21]: 98.1% | viability at 6 day, 0.3 µM [22]: 88.2% | viability at 6 day, 0.3 µM [23]: 106% | viability at 6 day, 0.3 µM [24]: 100% | viability at 6 day, 1 µM [21]: 96.5% | viability at 6 day, 1 µM [22]: 88% | viability at 6 day, 1 µM [23]: 105% | viability at 6 day, 1 µM [24]: 96.3% | viability at 6 day, 3 µM [21]: 96.8% | viability at 6 day, 3 µM [22]: 85.2% | viability at 6 day, 3 µM [23]: 105% | viability at 6 day, 3 µM [24]: 100% | viability at 6 day, 9.5 µM [21]: 94.5% | viability at 6 day, 9.5 µM [22]: 83.8% | viability at 6 day, 9.5 µM [23]: 102% | viability at 6 day, 9.5 µM [24]: 97.7% | viability at 6 day, 30 µM [21]: 71.5% | viability at 6 day, 30 µM [22]: 71.4% | viability at 6 day, 30 µM [23]: 66% | viability at 6 day, 30 µM [24]: 77.2%
